Results as given in patent US8173649B2, “Glucokinase activator” (Kyorin Pharmaceutical Co., Ltd., priority 2006, dated 2012).

Key:
[1] = tested on: ICR mice; assay: Hypoglycemic activity test; type: in vivo; details: statement in words in the description
Procedure: Using male 7- to 9-week-old ICR mice (Charles River Laboratories Japan), the effect of each test compound on the blood glucose levels was observed. Specifically, each compound was dissolved in a 60:40 mixture of Gelucire44/14 (Gatefosse) and PEG400 and was orally administered to the animals after a 2-hour fasting period (30 mg/kg, 10 mL/kg). Using a tube coated with dipotassium ethylenediamine tetraacetate, blood samples were collected from the tail vein immediately before administration (Pre-value), and 0.5, 2 and 4 hours after administration. The blood samples were centrifuged (4° C., 3,600 g, 3 min) to obtain plasma samples.
Each sample was diluted 5-fold with physiological saline and the blood glucose level was measured using glucose CII-test Wako (Wako Pure Chemical Industries). 10 μL each of one of the samples, physiological saline and a 100 mg/dL standard glucose solution (200 mg/dL standard glucose solution diluted two-fold with physiological saline) were placed in each well of a 96-well flat plate. 150 μL of a color-forming solution was added to each well and the plate was left at 37° C. for 5 min to allow the solution to develop color. Using a Lucy2 luminescence reader (Aloka), the measurements were taken at OD=492 nm. The decrease in the sigma glucose (mean decrease in the glucose levels at each blood collection point relative to the Pre-value) was determined from the decrease in the glucose level at each blood collection point relative to the Pre-value.

[2] = In vivo pharmacokinetics test (oral bioavailability); set-up: species or system mice; details: male, ICR, mouse, plasma, 2 μmol/kg
Procedure: Using male 6-week-old ICR mice (Charles River Laboratories Japan), the oral bioavailability of each test compound was evaluated. Specifically, each test compound was dissolved in dimethylsulfoxide (DMSO, Sigma) and the solution was added to a 1/15 M aqueous solution of sodium dihydrogen phosphate (Wako Pure Chemical Industries) to a concentration of 200 μM. DMSO was added to a final concentration of 30%. The resulting solution was administered to animals. As an intravenous injection group, a group of ICR mice, fasted overnight, were injected in their tail veins with the test compound solution (1 μmol/kg, 5 mL/kg). 5, 15 and 30 minutes after and 1, 2, 4, 8 and 24 hours after the intravenous administration, blood samples were collected from the eyeground of each animal using a heparin-coated capillary tube. […] 10 μL of the separated plasma was diluted with 100 μL of physiological saline and 10 μL of dimethylsulfoxide (sigma) and analyzed by a liquid chromatography-equipped triple quadrupole mass spectrometer (API-3000, Applied Biosystems) for the plasma concentration of unchanged product. The area under the plasma concentration-time curve (AUC) was determined by the trapezoidal method. The bioavailability of a test compound was determined by dividing the average AUC of the oral administration group corrected for the dose by the average AUC of the intravenous administration group.

[3] = In vitro liver microsome metabolic stability test, Method 1, human; type: in vitro ADME; details: microsomes
Procedure: (§1) In a glass test tube, each test compound was incubated with a solution containing liver microsomes of human (Xenotech) or murine (originally prepared from male 7-week-old ICR mice; Charles River Laboratories Japan) origin at 37° C. for 5 min to evaluate the metabolic stability of the compound. The incubation mixture contained 100 mM potassium phosphate buffer (pH 7.4, Wako Pure Chemical Industries), 3 mM MgCl2 (Wako Pure Chemical Industries), 5 mM glucose-6-phosphate (Roche), 1 mM EDTA (Tokyo Chemical Industry), 1 I.U. glucose 6-phosphate dehydrogenase (Roche) and 1 mg/mL liver microsome. A test compound was dissolved in DMSO and the solution was added to the reaction mixture to a final concentration of 1 μM. The metabolic process was initiated by the addition of an NADPH (Roche) solution to a final concentration of 1 mM and was terminated after 5 min by the addition of an equal volume of acetonitrile (Fischer). After termination of the process, the supernatant was separated by centrifugation and analyzed by a liquid chromatography-equipped mass spectrometer (SHIMADZU 2010A, Shimadzu) for the concentration of unchanged product.

[4] = In vitro liver microsome metabolic stability test, Method 1, murine; type: in vitro ADME, mice; details: mouse, microsomes
Procedure: as §1

[5] = in vitro; details: microsomes, pH 7.4
Procedure: In a glass test tube, each test compound was incubated with a solution containing liver microsomes of human (Xenotech) or murine (originally prepared from male 7-week-old ICR mice; Charles River Laboratories Japan) origin at 37° C. for 25 min to evaluate the metabolic stability of the compound. The incubation mixture contained 100 mM potassium phosphate buffer (pH 7.4, Wako Pure Chemical Industries), 3 mM MgCl2 (Wako Pure Chemical Industries), 5 mM glucose-6-phosphate (Roche), 1 mM EDTA (Tokyo Chemical Industry), 1 I.U. glucose 6-phosphate dehydrogenase (Roche) and 0.2 mg/mL liver microsome. A test compound was dissolved in DMSO and the solution was added to the reaction mixture to a final concentration of 1 μM. The metabolic process was initiated by the addition of an NADPH (Roche) solution to a final concentration of 1 mM and was terminated after 25 min by the addition of an equal volume of acetonitrile (Fischer). After termination of the process, the supernatant was separated by centrifugation and analyzed by a liquid chromatography-equipped mass spectrometer (SHIMADZU 2010A, Shimadzu) for the concentration of unchanged product.

In the case of `CS(=O)(=O)c1ccc(C(CC2CC(F)C(F)C2)C(=O)Nc2nccs2)cc1` (single isomer, unassigned; (+)) [compound 8, (+)-3-[(1β,3α,4α)-3,4-difluorocyclopentyl]-2-(4-(methylsulfonyl)phenyl)-N-(thiazole-2-yl)propionamide], the hypoglycemic activity [1] is reported as “do not exhibit high hypoglycemic activity”.

With `CS(=O)(=O)c1ccc([C@H](CC2CC(F)C(F)C2)C(=O)Nc2nccs2)cc1` (single isomer, unassigned; (+)) [compound 2, (+)-3-[(1α,3α,4α)-3,4-difluorocyclopentyl]-2-(4-(methylsulfonyl)phenyl)-N-(thiazole-2-yl)propionamide] the hypoglycemic activity [1] was “do not exhibit high hypoglycemic activity”.

With `CS(=O)(=O)c1ccc(C(CC2CC(F)C(F)C2)C(=O)Nc2nccs2)cc1` (single isomer, unassigned; (-)) [compound 7, (−)-3-[(1β,3α,4α)-3,4-difluorocyclopentyl]-2-(4-(methylsulfonyl)phenyl)-N-(thiazole-2-yl)propionamide] the hypoglycemic activity [1] was “do not exhibit high hypoglycemic activity”.

For `CS(=O)(=O)c1ccc(C(C[C@H]2C[C@@H](F)[C@@H](F)C2)C(=O)Nc2nccs2)cc1` (single isomer, unassigned; (-)) [Compound No. 1, (−)-3-[(1α,3α,4α)-3,4-difluorocyclopentyl]-2-(4-(methylsulfonyl)phenyl)-N-(thiazole-2-yl)propionamide], the bioavailability [2] was ≥ 50%, the microsomal CLint at 1 μM ([3]; pH 7.4) was ≤ 60 µL/min/mg and the microsomal CLint at 1 μM ([4]; male, ICR, pH 7.4) was ≤ 60 µL/min/mg. For the same compound, the microsomal CLint at 1 μM ([5]; human) was ≤ 50 µL/min/mg and the microsomal CLint at 1 μM ([5]; male, ICR, mouse) was ≤ 50 µL/min/mg.

In the case of `Cn1ccc(NC(=O)C(CC2CC(F)C(F)C2)c2ccc(S(C)(=O)=O)cc2)n1` (single isomer, unassigned; (-)) [compound 3, (−)-3-[(1α,3α,4α)-3,4-difluorocyclopentyl]-2-(4-(methylsulfonyl)phenyl)-N-(1-methylpyrazole-3-yl)propionamide], the metabolic clearance [3] is reported as ≤ 0.06 mL/min/mg protein and the metabolic clearance [4] is reported as ≤ 0.06 mL/min/mg protein.
